Data on eight compounds can be found in publication PMC12000094, “Development of a highly sensitive luciferase assay for intracellular evaluation of coronavirus Mpro activity” (Frontiers in Microbiology, 2025).

Where two headings read alike, the source gives them in different places. Square brackets hold non-standard residues; d marks the D form. Peptide text beside a SMILES is read from it. Nle = CCCC[C@H](N)C(=O)O

Test [1] relates to HCoV-229E. Nature of the test: microbe, parasite or virus in culture. The class given is cell-based, HCoV-229E (Huh-7 cells). The note with it: for IC50: read-out: IC50 (inhibition of luciferase expression, HCoV-229E infection); for antiviral potency against HCoV 229E in words: ICMP assay, Huh-7 cells.
The test system of test [2] is HCoV-229E. The test can be described thus: RT-qPCR of viral RNA and Mpro gene in HCoV-229E-infected, drug-treated Huh-7 cells. The note with it: infected Huh-7 cells, 48 h post-infection. The class given is cell-based, HCoV-229E (Huh-7 cells).
The next test relates to 229E coronavirus. Also noted: method as in Boras et al., 2021. The note with it: cell-based assay; ref Boras et al., 2021; read-out: IC50 (anti-229E coronavirus activity, previous study); cited from earlier work.
Where [3] appears, read: Human coronavirus 229E, Huh-7, 48 h.

In the case of `CC(C)(C)NC(=O)N[C@H](C(=O)N1C[C@H]2[C@@H]([C@H]1C(=O)NC(CC1CCC1)C(=O)C(N)=O)C2(C)C)C(C)(C)C` (stereo partly drawn) [Boceprevir], in the test on HCoV-229E [1] (setting [3]), the IC50 is above 50 µM. In the test on HCoV-229E [1], the “antiviral potency against HCoV 229E in words” value (shortened to “antiviral potency”) is given as “very weak inhibitory potency”.

On to `O=c1cc(-c2ccc(O)c(O)c2)oc2cc(O[C@@H]3O[C@H](CO)[C@@H](O)[C@H](O)[C@H]3O)cc(O)c12` [Cynaroside, luteolin 7-O-β-D-glucoside], for which, in the test on HCoV-229E [1], the “antiviral potency” value is given as “moderate inhibitory effects” and the IC50 is 21.6 µM. Also, the “antiviral potency” value with HCoV-229E [1] (listed as cynaroside) was “moderate antiviral activity”.

As to `CC(C)C[C@H](NC(=O)OCc1ccccc1)C(=O)N[C@@H](CC1CCNC1=O)C(O)S(=O)(=O)O` (stereo partly drawn) [GC376], the IC50 in the test with HCoV-229E [1] came to 0.345 µM.

Consider `CC(C)C[C@H](NC(=O)OCc1ccccc1)C(=O)N[C@@H](C[C@@H]1CCNC1=O)C(O)S(=O)(=O)[O-].[Na+]` (stereo partly drawn) [GC376], for which the “antiviral potency” value in the test with HCoV-229E [1] is “effectively suppresses the replication”.

As to `COc1cccc2[nH]c(C(=O)N[C@@H](CC(C)C)C(=O)N[C@@H](C[C@@H]3CCNC3=O)C(=O)COP(=O)(O)O)cc12` [Lufotrelvir], the “intracellular 229E Mpro expression (RT-qPCR, normalized to GAPDH) versus drug concentration” value with HCoV-229E [2] (increasing drug concentration) is recorded as “decreased significantly”. Besides, the “HCoV 229E viral RNA levels (RT-qPCR, normalized to GAPDH) versus drug concentration” value in the test on HCoV-229E [2] (increasing drug concentrations) is listed as “negative correlation”. Moreover, the IC50 in the test on HCoV-229E [1] (setting [3]) was 0.065 µM; with 229E coronavirus, 0.058 µM.

On to `CCCC[C@@H](C=O)NC(=O)[C@H](CC(C)C)NC(=O)[C@H](CC(C)C)NC(C)=O` [MG-101] (Ac-Leu-Leu-[Nle]-aldehyde), for which, in the test with HCoV-229E [1], the “antiviral potency” value is reported as “moderate cellular inhibition” and the IC50 was determined as 2.8 µM.

Turning to `CC(C)(C)[C@H](NC(=O)C(F)(F)F)C(=O)N1C[C@H]2[C@@H]([C@H]1C(=O)N[C@H](C#N)C[C@@H]1CCNC1=O)C2(C)C` [Nirmatrelvir], in the test on HCoV-229E [1] (setting [3]), the IC50 was determined as 0.233 µM.

In the case of `CC(C)(C)c1ccc(N(C(=O)c2cnc[nH]2)[C@@H](C(=O)NC2CCCCC2)c2cccnc2)cc1` [X77], the IC50 in the test with HCoV-229E [1] is 0.457 µM.
